Results from ChEMBL document CHEMBL1129926, “D4 dopamine receptor-selective compounds from the Chinese plant Phoebe chekiangensis” (Bioorg Med Chem Lett, 1997).

Biological target: T1, D(4) dopamine receptor (Homo sapiens, UniProt P21917)
T1 sequence (P21917 whole entry): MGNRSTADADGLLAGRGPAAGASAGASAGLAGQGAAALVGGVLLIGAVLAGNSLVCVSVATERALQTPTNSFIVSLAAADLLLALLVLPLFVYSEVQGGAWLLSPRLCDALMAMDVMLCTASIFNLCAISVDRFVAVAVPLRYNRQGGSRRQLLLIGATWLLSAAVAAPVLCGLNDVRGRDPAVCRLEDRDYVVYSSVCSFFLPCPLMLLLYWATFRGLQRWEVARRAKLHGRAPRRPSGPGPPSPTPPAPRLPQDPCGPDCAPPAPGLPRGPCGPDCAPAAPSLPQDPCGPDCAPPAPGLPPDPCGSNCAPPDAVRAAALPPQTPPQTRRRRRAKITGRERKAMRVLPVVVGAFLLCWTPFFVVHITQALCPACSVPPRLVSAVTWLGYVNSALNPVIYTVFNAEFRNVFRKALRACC
Test: Potency was measured by the displacement of [3H]-spiperone binding to human D4 dopaminergic receptor

`Oc1ccc(CC2NCCc3cc(O)c(O)cc32)cc1` (centres undefined) [HIGENAMINE] and `Oc1ccc(CC2NCCc3cc(O)c(O)cc32)cc1O` (centres undefined) are within 1.5-fold of each other in Ki: 3100 nM for the first, 2500 nM for the second.

Going from `CC1NCCc2cc(O)c(O)cc21` (centres undefined) to `CN1CCc2cc(O)c(O)cc2C1Cc1ccc(O)c(O)c1` (centres undefined), the Ki falls from 6400 nM to 350 nM (18-fold). The second binds more tightly here.

Compared with `OC[C@H]1O[C@H](Oc2ccc(CC3NCCc4cc(O)c(O)cc43)cc2)[C@H](O)[C@H](O)[C@H]1O` (some centres undefined), `Oc1ccc2c(c1)CCN2` is 2.4-fold lower in Ki: 1200 nM for the first, 500 nM for the second. The second binds more tightly here.

Biological target: T1, D(4) dopamine receptor
Test: Inhibitory concentration against binding of [3H]spiperone to human D4 dopaminergic receptor

`OC[C@H]1O[C@H](Oc2ccc(CC3NCCc4cc(O)c(O)cc43)cc2)[C@H](O)[C@H](O)[C@H]1O` (some centres undefined) and `Oc1ccc2c(c1)CCN2` are within 1.5-fold of each other in IC50: 47500 nM for the first, 39200 nM for the second.

Biological target: D(2) dopamine receptor (Homo sapiens, UniProt P14416)
Test: Inhibitory concentration against binding of [3H]spiperone to human D2 dopaminergic receptor

D(2) dopamine receptor, sequence (P14416 whole entry): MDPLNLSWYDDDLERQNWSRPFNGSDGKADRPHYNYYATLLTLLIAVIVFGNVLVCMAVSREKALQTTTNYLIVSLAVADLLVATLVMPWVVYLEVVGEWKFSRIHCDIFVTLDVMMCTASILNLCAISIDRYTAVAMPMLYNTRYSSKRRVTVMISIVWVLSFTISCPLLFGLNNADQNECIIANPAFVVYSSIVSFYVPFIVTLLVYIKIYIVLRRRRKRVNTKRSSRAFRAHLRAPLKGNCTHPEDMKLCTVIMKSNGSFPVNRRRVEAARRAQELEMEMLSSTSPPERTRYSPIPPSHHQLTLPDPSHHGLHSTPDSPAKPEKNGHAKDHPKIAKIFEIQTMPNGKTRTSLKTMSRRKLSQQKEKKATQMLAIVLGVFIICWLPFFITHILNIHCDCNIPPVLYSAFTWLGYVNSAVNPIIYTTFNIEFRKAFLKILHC

With `Oc1ccc2c(c1)CCN2` the IC50 was 1030 nM.
